Reference: the supplement of paper PMC4862054

How the values were obtained:
Test in all cases: normalised viability (% of control), CellTiter-Blue; higher = more viable cells (about 100 = DMSO control)
Details in all cases: incubation time: 72 h
[1] = system: CAL-148
Method in brief: (§1)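 384-well plates were pre-loaded with compound in 5 µl medium before 20 µl of breast cancer cell suspension was seeded. Following 72 h incubation, 2.5 µl CellTiter-Blue reagent was added for 2 h at 37 °C. Fluorescence was read at 560/590 nm and plates were normalised to vehicle (100) and a positive kill control (0), checked by Z'-factor. Normalised viability is reported at a single listed concentration of the series.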

[2] = system: HCC1143
Method in brief: as §1

[3] = system: HCC1937
Method in brief: as §1

[4] = system: CAL-51
Method in brief: as §1

[5] = system: HCC1599
Method in brief: as §1

[6] = system: DU-4475
Method in brief: as §1

[7] = system: MFM-223
Method in brief: as §1

[8] = system: MDA-MB-436
Method in brief: as §1

[9] = system: BT-549
Method in brief: as §1

[10] = system: MDA-MB-231
Method in brief: as §1

[11] = system: CAL-148; remark: listed apart in the source
Method in brief: as §1

[12] = system: HCC1143; remark: listed apart in the source
Method in brief: as §1

[13] = system: HCC1937; remark: listed apart in the source
Method in brief: as §1

[14] = system: CAL-120
Method in brief: as §1

[15] = system: CAL-51; remark: listed apart in the source
Method in brief: as §1

[16] = system: SK-BR-3
Method in brief: as §1

[17] = system: HCC1599; remark: listed apart in the source
Method in brief: as §1

[18] = system: DU-4475; remark: listed apart in the source
Method in brief: as §1

[19] = system: HDQ-P1
Method in brief: as §1

[20] = system: MFM-223; remark: listed apart in the source
Method in brief: as §1

[21] = system: BT-474
Method in brief: as §1

[22] = system: MDA-MB-453
Method in brief: as §1

[23] = system: MDA-MB-436; remark: listed apart in the source
Method in brief: as §1

[24] = system: MDA-MB-468
Method in brief: as §1

[25] = system: BT-549; remark: listed apart in the source
Method in brief: as §1

[26] = system: Hs578T
Method in brief: as §1

[27] = system: CAL-85-1
Method in brief: as §1

CC(C)C[C@H](NC(=O)[C@H](Cc1ccccc1)NC(=O)c1cnccn1)B(O)O [Bortezomib]
Details	normalised viability [%]
[1], 1 nM	91.2
[2], 10 nM	52.1
[3], 10 nM	19.6
[4], 1 nM	99.9
[5], 10 nM	110
[6], 1 nM	120
[7], 10 nM	38.1
[8], 10 nM	98.9
[9], 10 nM	39.5
[10], 10 nM	16.2
[11], 0.3 nM	99.6
[11], 3 nM	89
[11], 10 nM	94.4
[12], 1 nM	81
[12], 100 nM	19.4
[12], 1000 nM	17.4
[13], 1 nM	83.4
[13], 100 nM	8.79
[13], 1000 nM	3.46
[14], 1 nM	95.8
[14], 100 nM	4.31
[14], 1000 nM	3.21
[15], 0.3 nM	101
[15], 3 nM	97.9
[15], 10 nM	97.7
[16], 1 nM	90.2
[16], 100 nM	17.5
[16], 1000 nM	15.6
[17], 1 nM	130
[17], 100 nM	64.5
[17], 1000 nM	45.2
[18], 0.3 nM	113
[18], 3 nM	93.4
[18], 10 nM	98.8
[19], 0.3 nM	79.4
[19], 3 nM	87.9
[19], 10 nM	10.2
[20], 1 nM	104
[20], 100 nM	16.9
[20], 1000 nM	15.3
[21], 1 nM	101
[21], 100 nM	36.6
[21], 1000 nM	22.4
[22], 0.3 nM	106
[22], 3 nM	112
[22], 10 nM	20.9
[23], 1 nM	101
[23], 100 nM	12.2
[23], 1000 nM	9.29
[24], 1 nM	88.3
[24], 100 nM	3.55
[24], 1000 nM	2.21
[25], 1 nM	99.8
[25], 100 nM	6.67
[25], 1000 nM	3.15
[26], 1 nM	91.1
[26], 100 nM	2.89
[26], 1000 nM	0.76
[27], 0.3 nM	104
[27], 3 nM	92.1
[27], 10 nM	36.5

CS(=O)(=O)OCCCCOS(C)(=O)=O [Busulfan]
Details	normalised viability [%]
[1], 100 nM	106
[2], 1000 nM	124
[3], 1000 nM	94.6
[4], 100 nM	95.3
[5], 1000 nM	101
[6], 100 nM	91.4
[7], 1000 nM	90.3
[8], 1000 nM	93.3
[9], 1000 nM	85.1
[10], 1000 nM	99.5
[11], 30 nM	124
[11], 300 nM	111
[11], 1000 nM	115
[12], 100 nM	104
[12], 10000 nM	108
[12], 100000 nM	108
[13], 100 nM	86.4
[13], 10000 nM	83.1
[13], 100000 nM	43.7
[14], 100 nM	110
[14], 10000 nM	105
[14], 100000 nM	88.1
[15], 30 nM	103
[15], 300 nM	95.4
[15], 1000 nM	94.6
[16], 100 nM	95.1
[16], 10000 nM	104
[16], 100000 nM	87.8
[17], 100 nM	90.2
[17], 10000 nM	75.4
[17], 100000 nM	109
[18], 30 nM	96.1
[18], 300 nM	89.2
[18], 1000 nM	94.7
[19], 30 nM	109
[19], 300 nM	113
[19], 1000 nM	94.4
[20], 100 nM	108
[20], 10000 nM	95.7
[20], 100000 nM	99.1
[21], 100 nM	107
[21], 10000 nM	114
[21], 100000 nM	108
[22], 30 nM	95.9
[22], 300 nM	101
[22], 1000 nM	104
[23], 100 nM	106
[23], 10000 nM	95.2
[23], 100000 nM	82.9
[24], 100 nM	99.1
[24], 10000 nM	109
[24], 100000 nM	90.5
[25], 100 nM	84
[25], 10000 nM	92.4
[25], 100000 nM	68.2
[26], 100 nM	103
[26], 10000 nM	101
[26], 100000 nM	85.7
[27], 30 nM	106
[27], 300 nM	101
[27], 1000 nM	108

C#Cc1cccc(Nc2ncnc3cc(OC)c(OCCCCCCC(=O)NO)cc23)c1 [CUDC-101]
Details	normalised viability [%]
[1], 10 nM	83.6
[2], 100 nM	79.7
[3], 100 nM	88.8
[4], 10 nM	113
[5], 100 nM	83.4
[6], 10 nM	101
[7], 100 nM	63.3
[8], 100 nM	117
[9], 100 nM	97.6
[10], 100 nM	91.2
[11], 3 nM	90.4
[11], 30 nM	89.8
[11], 100 nM	85.2
[12], 10 nM	78.3
[12], 1000 nM	32.8
[12], 10000 nM	11.6
[13], 10 nM	71.7
[13], 1000 nM	45.4
[13], 10000 nM	14.6
[14], 10 nM	82.3
[14], 1000 nM	38.3
[14], 10000 nM	9.22
[15], 3 nM	117
[15], 30 nM	108
[15], 100 nM	105
[16], 10 nM	75.5
[16], 1000 nM	16.8
[16], 10000 nM	2.82
[17], 10 nM	78.8
[17], 1000 nM	28.6
[17], 10000 nM	16
[18], 3 nM	84
[18], 30 nM	84.7
[18], 100 nM	80.8
[19], 3 nM	98.9
[19], 30 nM	93.3
[19], 100 nM	71.5
[20], 10 nM	75.1
[20], 1000 nM	20.4
[20], 10000 nM	2.11
[21], 10 nM	108
[21], 1000 nM	28.2
[21], 10000 nM	3.84
[22], 3 nM	99.7
[22], 30 nM	67.3
[22], 100 nM	65.3
[23], 10 nM	94.7
[23], 1000 nM	53.9
[23], 10000 nM	12
[24], 10 nM	100
[24], 1000 nM	25.5
[24], 10000 nM	8.4
[25], 10 nM	90.3
[25], 1000 nM	64.6
[25], 10000 nM	9.13
[26], 10 nM	91.3
[26], 1000 nM	38.2
[26], 10000 nM	5.55
[27], 3 nM	89
[27], 30 nM	75.5
[27], 100 nM	91

COc1cccc2c1C(=O)c1c(O)c3c(c(O)c1C2=O)C[C@@](O)(C(C)=O)C[C@@H]3O[C@H]1C[C@H](N)[C@H](O)[C@H](C)O1 [Daunorubicin]
Details	normalised viability [%]
[1], 1 nM	103
[2], 10 nM	79.2
[3], 10 nM	77.9
[4], 1 nM	99.8
[5], 10 nM	104
[6], 1 nM	95.8
[7], 10 nM	90.9
[8], 10 nM	92.1
[9], 10 nM	95.1
[10], 10 nM	85.2
[11], 0.3 nM	88.5
[11], 3 nM	106
[11], 10 nM	77.6
[12], 1 nM	81.4
[12], 100 nM	52.7
[12], 1000 nM	32
[13], 1 nM	105
[13], 100 nM	34.2
[13], 1000 nM	20
[14], 1 nM	80.3
[14], 100 nM	35.9
[14], 1000 nM	9.51
[15], 0.3 nM	97.1
[15], 3 nM	92.9
[15], 10 nM	88.2
[16], 1 nM	103
[16], 100 nM	40.1
[16], 1000 nM	6.42
[17], 1 nM	82.5
[17], 100 nM	98.8
[17], 1000 nM	53.7
[18], 0.3 nM	84.7
[18], 3 nM	86.3
[18], 10 nM	70.7
[19], 0.3 nM	133
[19], 3 nM	94.5
[19], 10 nM	97.3
[20], 1 nM	108
[20], 100 nM	104
[20], 1000 nM	26.7
[21], 1 nM	118
[21], 100 nM	80.3
[21], 1000 nM	17.3
[22], 0.3 nM	110
[22], 3 nM	114
[22], 10 nM	97
[23], 1 nM	100
[23], 100 nM	50.4
[23], 1000 nM	17.3
[24], 1 nM	102
[24], 100 nM	52.2
[24], 1000 nM	6.86
[25], 1 nM	87
[25], 100 nM	59
[25], 1000 nM	11
[26], 1 nM	111
[26], 100 nM	64.1
[26], 1000 nM	6.42
[27], 0.3 nM	87.3
[27], 3 nM	86.8
[27], 10 nM	89.1
